Experimental data reported in patent US6706663B2, “Herbicidal 3-heterocyclic substituted benzisothiazole and benzisoxazole compounds” (Wyeth, priority 2000, dated 2004).

Key:
[1] = test system: AMBEL (Ambrosia artemisifolia); experiment: Preemergence herbicidal evaluation; type: in vivo, L.; conditions: preemergence, rated 4-5 weeks after treatment
Method in brief: (§1)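 Test compound is applied in aqueous acetone to cups just after seeding. Cups are watered and maintained on greenhouse benches. Each cup is scored 0–9 by eye relative to a control after four to five weeks.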

[2] = test system: CHEAL (Chenopodium album); experiment: Preemergence herbicidal evaluation; type: in vivo, L.; conditions: preemergence, rated 4-5 weeks after treatment
Method in brief: as §1

[3] = test system: CASOB (Cassia obtusifolia); experiment: Preemergence herbicidal evaluation; type: in vivo, L.; conditions: preemergence, rated 4-5 weeks after treatment
Method in brief: as §1

[4] = test system: TRZAWR (Wheat, Winter, cv Riband); experiment: Preemergence herbicidal evaluation; type: in vivo, Triticum aestivum; conditions: preemergence, rated 4-5 weeks after treatment
Method in brief: as §1

ORYSAT (Rice, Tebonnet) [5] = experiment: Flooded paddy, post-transplant rice tolerance; type: in vivo, Oryza sativa, (L.) Tebonnet; conditions: flooded paddy, post-transplant rice, rated 3-4 weeks after treatment, 0-9 rating scale
Method in brief: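 Visual 0–9 injury rating against a control, covering stand, vigor, malformation, size, chlorosis and overall appearance. Treatment was post-transplant onto flooded containers (water 1.5–3 cm deep, silt loam) holding two ten-day-old cv. Tebonnet seedlings, maintained on greenhouse benches.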

[6] = test system: ECHCG (Echinochloa crus-galli); experiment: Postemergence herbicidal evaluation; type: in vivo, (L.) Beau
Method in brief: (§2)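 Seedlings grown for about two weeks were sprayed postemergence and then kept under standard greenhouse care. Injury was rated visually 4–5 weeks after treatment on a 0–9 scale against untreated controls, and ratings from repeat tests were averaged.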

[7] = test system: IPOHE (Ipomoea hederacea); experiment: Postemergence herbicidal evaluation; type: in vivo, (L.) Jacq.
Method in brief: as §2

[8] = test system: ABUTH (Abutilon theophrasti); experiment: Postemergence herbicidal evaluation; type: in vivo, Medic.
Method in brief: as §2

[9] = test system: ECHORC (Echinochloa oryzoides); experiment: Flooded paddy, preemergence weed control; type: in vivo, Echinochloa oryzoides (Ard.) Fritsch.; conditions: rated 3-4 weeks after treatment, 0-9 rating scale
Method in brief: (§3)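 Visual 0-9 rating versus control, scoring stand, vigor, malformation, size, chlorosis and overall appearance. Silt loam soil, propagules in top 0.5 cm; flood depth 1.5–3 cm held for the whole test; greenhouse.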

ORYSAT (Rice, Tebonnet) [10] = experiment: Preemergence herbicidal evaluation; type: in vivo, Oryza sativa, (L.) Tebonnet; conditions: preemergence, rated 4-5 weeks after treatment
[11] = test system: AMBEL (Ambrosia artemisifolia); experiment: Postemergence herbicidal evaluation; type: in vivo, L.
Method in brief: as §2

[12] = test system: CHEAL (Chenopodium album); experiment: Postemergence herbicidal evaluation; type: in vivo, L.
Method in brief: as §2

[13] = test system: CASOB (Cassia obtusifolia); experiment: Postemergence herbicidal evaluation; type: in vivo, L.
Method in brief: as §2

ORYSAT (Rice, Tebonnet) [14] = experiment: Postemergence herbicidal evaluation; type: in vivo, Oryza sativa, (L.) Tebonnet
Method in brief: as §2

[15] = test system: TRZAWR (Wheat, Winter, cv Riband); experiment: Postemergence herbicidal evaluation; type: in vivo, Triticum aestivum
Method in brief: as §2

[16] = test system: SAGPY (Sagittaria pygmaea); experiment: Flooded paddy, preemergence weed control; type: in vivo, L.; conditions: rated 3-4 weeks after treatment, 0-9 rating scale
Method in brief: as §3

[17] = test system: ABUTH (Abutilon theophrasti); experiment: Preemergence herbicidal evaluation; type: in vivo, Medic.; conditions: preemergence, rated 4-5 weeks after treatment
[18] = test system: CYPSE (Cyperus serotinus); experiment: Flooded paddy, preemergence weed control; type: in vivo, Rottb.; conditions: rated 3-4 weeks after treatment, 0-9 rating scale
Method in brief: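 Herbicidal effect was scored visually on a 0–9 scale against an untreated control 3–4 weeks after treatment. Compounds were applied preemergence as 50/50 v/v aqueous/acetone mixtures into flood water (1.5–3 cm deep over silt loam), at roughly 0.0080 to 0.1250 kg/ha active ingredient.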

ZEAMX (Corn, Field) = experiment: Postemergence herbicidal evaluation; type: in vivo, Zea mays, L.
Method in brief: as §2

## Cc1cscc1-c1nsc2ccc(-n3c(=O)cc(C(F)(F)F)n(C)c3=O)cc12 [Compound 26, 1-methyl-3-[3-(4-methyl-3-thienyl)-1,2-benzisothiazol-5-yl]-6-(trifluoromethyl)uracil]
[1]; Rate 0.0620 kg/ha
  AMBEL preemergence herbicidal rating: 3.0
[1]; Rate 0.1250 kg/ha
  AMBEL preemergence herbicidal rating: 6.0
[1]; Rate 0.2500 kg/ha
  AMBEL preemergence herbicidal rating: 8.5
[2]; Rate 0.0620 kg/ha
  CHEAL preemergence herbicidal rating: 9.0
[2]; Rate 0.1250 kg/ha
  CHEAL preemergence herbicidal rating: 9.0
[2]; Rate 0.2500 kg/ha
  CHEAL preemergence herbicidal rating: 9.0
[3]; Rate 0.0620 kg/ha
  CASOB preemergence herbicidal rating: 1.0
[3]; Rate 0.1250 kg/ha
  CASOB preemergence herbicidal rating: 3.5
[3]; Rate 0.2500 kg/ha
  CASOB preemergence herbicidal rating: 6.0
[4]; Rate 0.0620 kg/ha
  TRZAWR preemergence herbicidal rating: 2.0
[4]; Rate 0.1250 kg/ha
  TRZAWR preemergence herbicidal rating: 3.0
[4]; Rate 0.2500 kg/ha
  TRZAWR preemergence herbicidal rating: 7.0
ORYSAT (Rice, Tebonnet) [5]; rate 0.0080 kg/ha
  herbicidal rating, ORYSAT (rice tolerance): 0.0
ORYSAT (Rice, Tebonnet) [5]; rate 0.0320 kg/ha
  herbicidal rating, ORYSAT (rice tolerance): 2.0
ORYSAT (Rice, Tebonnet) [5]; rate 0.1250 kg/ha
  herbicidal rating, ORYSAT (rice tolerance): 4.3
[6]; rate 0.0320 kg/ha
  Postemergence herbicidal rating, ECHCG: 3.0
[6]; rate 0.0620 kg/ha
  Postemergence herbicidal rating, ECHCG: 3.0
[7]; rate 0.0320 kg/ha
  Postemergence herbicidal rating, IPOHE: 9.0
[7]; rate 0.0620 kg/ha
  Postemergence herbicidal rating, IPOHE: 9.0
[8]; rate 0.0320 kg/ha
  Postemergence herbicidal rating, ABUTH: 9.0
[8]; rate 0.0620 kg/ha
  Postemergence herbicidal rating, ABUTH: 9.0
[9]; rate 0.0080 kg/ha
  herbicidal rating, ECHORC: 8.0
[9]; rate 0.0320 kg/ha
  herbicidal rating, ECHORC: 9.0
[9]; rate 0.1250 kg/ha
  herbicidal rating, ECHORC: 9.0
ORYSAT (Rice, Tebonnet) [10]; Rate 0.0620 kg/ha
  ORYSAT preemergence herbicidal rating: 2.0
ORYSAT (Rice, Tebonnet) [10]; Rate 0.1250 kg/ha
  ORYSAT preemergence herbicidal rating: 3.0
ORYSAT (Rice, Tebonnet) [10]; Rate 0.2500 kg/ha
  ORYSAT preemergence herbicidal rating: 5.5
[11]; rate 0.0320 kg/ha
  Postemergence herbicidal rating, AMBEL: 9.0
[11]; rate 0.0620 kg/ha
  Postemergence herbicidal rating, AMBEL: 9.0
[12]; rate 0.0320 kg/ha
  Postemergence herbicidal rating, CHEAL: 7.0
[12]; rate 0.0620 kg/ha
  Postemergence herbicidal rating, CHEAL: 9.0
[13]; rate 0.0320 kg/ha
  Postemergence herbicidal rating, CASOB: 4.0
[13]; rate 0.0620 kg/ha
  Postemergence herbicidal rating, CASOB: 9.0
ORYSAT (Rice, Tebonnet) [14]; rate 0.0320 kg/ha
  Postemergence herbicidal rating, ORYSAT: 3.5
ORYSAT (Rice, Tebonnet) [14]; rate 0.0620 kg/ha
  Postemergence herbicidal rating, ORYSAT: 4.5
[15]; rate 0.0320 kg/ha
  Postemergence herbicidal rating, TRZAWR: 3.5
[15]; rate 0.0620 kg/ha
  Postemergence herbicidal rating, TRZAWR: 4.5
[16]; rate 0.0080 kg/ha
  herbicidal rating, SAGPY: 1.5
[16]; rate 0.0320 kg/ha
  herbicidal rating, SAGPY: 5.3
[16]; rate 0.1250 kg/ha
  herbicidal rating, SAGPY: 8.0
[17]; Rate 0.0620 kg/ha
  ABUTH preemergence herbicidal rating: 4.0
[17]; Rate 0.1250 kg/ha
  ABUTH preemergence herbicidal rating: 9.0
[17]; Rate 0.2500 kg/ha
  ABUTH preemergence herbicidal rating: 9.0
[18]; rate 0.0320 kg/ha
  herbicidal rating, CYPSE: 0.0
[18]; rate 0.1250 kg/ha
  herbicidal rating, CYPSE: 3.0
ZEAMX (Corn, Field); rate 0.0320 kg/ha
  Postemergence herbicidal rating, ZEAMX: 5.0
ZEAMX (Corn, Field); rate 0.0620 kg/ha
  Postemergence herbicidal rating, ZEAMX: 5.5

## Cc1cc(C)c(-c2nsc3ccc(-n4c(=O)cc(C(F)(F)F)n(C)c4=O)cc23)s1 [Compound 27, 3-[3-(3,5-dimethyl-2-thienyl)-1,2-benzisothiazol-5-yl]-1-methyl-6-(trifluoromethyl)uracil]
[1]; Rate 0.0620 kg/ha
  AMBEL preemergence herbicidal rating: 5.0
[1]; Rate 0.1250 kg/ha
  AMBEL preemergence herbicidal rating: 5.0
[1]; Rate 0.2500 kg/ha
  AMBEL preemergence herbicidal rating: 9.0
[2]; Rate 0.0620 kg/ha
  CHEAL preemergence herbicidal rating: 9.0
[2]; Rate 0.1250 kg/ha
  CHEAL preemergence herbicidal rating: 9.0
[2]; Rate 0.2500 kg/ha
  CHEAL preemergence herbicidal rating: 9.0
[3]; Rate 0.0620 kg/ha
  CASOB preemergence herbicidal rating: 1.0
[3]; Rate 0.1250 kg/ha
  CASOB preemergence herbicidal rating: 5.0
[3]; Rate 0.2500 kg/ha
  CASOB preemergence herbicidal rating: 4.0
[4]; Rate 0.0620 kg/ha
  TRZAWR preemergence herbicidal rating: 2.0
[4]; Rate 0.1250 kg/ha
  TRZAWR preemergence herbicidal rating: 2.0
[4]; Rate 0.2500 kg/ha
  TRZAWR preemergence herbicidal rating: 2.0
ORYSAT (Rice, Tebonnet) [5]; rate 0.0080 kg/ha
  herbicidal rating, ORYSAT (rice tolerance): 1.0
ORYSAT (Rice, Tebonnet) [5]; rate 0.0320 kg/ha
  herbicidal rating, ORYSAT (rice tolerance): 2.0
ORYSAT (Rice, Tebonnet) [5]; rate 0.1250 kg/ha
  herbicidal rating, ORYSAT (rice tolerance): 3.7
[6]; rate 0.0320 kg/ha
  Postemergence herbicidal rating, ECHCG: 4.0
[6]; rate 0.0620 kg/ha
  Postemergence herbicidal rating, ECHCG: 5.0
[7]; rate 0.0320 kg/ha
  Postemergence herbicidal rating, IPOHE: 9.0
[7]; rate 0.0620 kg/ha
  Postemergence herbicidal rating, IPOHE: 9.0
[8]; rate 0.0320 kg/ha
  Postemergence herbicidal rating, ABUTH: 9.0
[8]; rate 0.0620 kg/ha
  Postemergence herbicidal rating, ABUTH: 9.0
[9]; rate 0.0080 kg/ha
  herbicidal rating, ECHORC: 6.5
[9]; rate 0.0320 kg/ha
  herbicidal rating, ECHORC: 9.0
[9]; rate 0.1250 kg/ha
  herbicidal rating, ECHORC: 9.0
ORYSAT (Rice, Tebonnet) [10]; Rate 0.0620 kg/ha
  ORYSAT preemergence herbicidal rating: 1.0
ORYSAT (Rice, Tebonnet) [10]; Rate 0.1250 kg/ha
  ORYSAT preemergence herbicidal rating: 2.0
ORYSAT (Rice, Tebonnet) [10]; Rate 0.2500 kg/ha
  ORYSAT preemergence herbicidal rating: 1.0
[11]; rate 0.0320 kg/ha
  Postemergence herbicidal rating, AMBEL: 9.0
[11]; rate 0.0620 kg/ha
  Postemergence herbicidal rating, AMBEL: 9.0
[12]; rate 0.0320 kg/ha
  Postemergence herbicidal rating, CHEAL: 9.0
[12]; rate 0.0620 kg/ha
  Postemergence herbicidal rating, CHEAL: 9.0
[13]; rate 0.0320 kg/ha
  Postemergence herbicidal rating, CASOB: 3.0
[13]; rate 0.0620 kg/ha
  Postemergence herbicidal rating, CASOB: 3.0
ORYSAT (Rice, Tebonnet) [14]; rate 0.0320 kg/ha
  Postemergence herbicidal rating, ORYSAT: 4.5
ORYSAT (Rice, Tebonnet) [14]; rate 0.0620 kg/ha
  Postemergence herbicidal rating, ORYSAT: 4.5
[15]; rate 0.0320 kg/ha
  Postemergence herbicidal rating, TRZAWR: 5.0
[15]; rate 0.0620 kg/ha
  Postemergence herbicidal rating, TRZAWR: 5.5
[16]; rate 0.0080 kg/ha
  herbicidal rating, SAGPY: 0.0
[16]; rate 0.0320 kg/ha
  herbicidal rating, SAGPY: 1.7
[16]; rate 0.1250 kg/ha
  herbicidal rating, SAGPY: 8.3
[17]; Rate 0.0620 kg/ha
  ABUTH preemergence herbicidal rating: 5.0
[17]; Rate 0.1250 kg/ha
  ABUTH preemergence herbicidal rating: 6.0
[17]; Rate 0.2500 kg/ha
  ABUTH preemergence herbicidal rating: 9.0
[18]; rate 0.0080 kg/ha
  herbicidal rating, CYPSE: 0.0
[18]; rate 0.0320 kg/ha
  herbicidal rating, CYPSE: 4.5
[18]; rate 0.1250 kg/ha
  herbicidal rating, CYPSE: 6.0
ZEAMX (Corn, Field); rate 0.0320 kg/ha
  Postemergence herbicidal rating, ZEAMX: 5.0
ZEAMX (Corn, Field); rate 0.0620 kg/ha
  Postemergence herbicidal rating, ZEAMX: 5.0
